Experimental data: US9273046B2, “Fused tricyclic compounds as Raf kinase inhibitors” (BeiGene, LTD., priority 2011, dated 2016)
Like-named read-outs stand apart in the source and are kept apart here.

Tests used:
[1] = biological target: C-Raf (Y340D/Y341D) (Homo sapiens (Human), UniProt P04049, Y340D/Y341D); assay: Raf IC50 assay, time-resolved fluorescence energy transfer (TR-FRET), C-Raf; type: biochemical; settings: 0.5 nM C-Raf, 0.1 mM ATP, GST-tagged MEK1 substrate, 60 min preincubation
Procedure: The assay was carried out in reactions (10 μL) containing 0.0625 nM B-Raf or 0.5 nM C-Raf, 25 mM Tris pH7.4, 10 mM MgCl2, 0.5 mM EGTA, 0.5 mM […], 5 mM beta-glycerophosphate, 0.01% Triton X-100, 2.5 mM DTT, 0.1% BSA, 0.1 mM ATP, 13.7 nM GST-tagged MEK1 (Full-length protein with K97R mutation, recombinant protein purified from bacterial expression system) and 0-5 μM compounds disclosed herein (final concentration of 1% DMSO). The enzyme was incubated with the compounds at room temperature for 60 minutes and the reactions were initiated by the addition of ATP and GST-MEK1. After incubating at room temperature for 60 minutes, an equal volume of stop buffer containing 25 mM Tris pH7.4, 400 mM KF, 50 mM EDTA, 0.01% BSA, 0.01% Triton X-100, 1 test of Eu3+ Cryptate-conjugated rabbit polyclonal antibody anti-Phospho MEK1/2 (Ser217/221) and 1 test of d2-conjugated mouse monoclonal antibody anti-glutathione S-transferase was added to stop the reactions. Plates were sealed and incubated at room temperature for 2 hours, and then the TR-FRET signals were read on BMG PHERAstar FS instrument. The IC50 for each compound was calculated by non linear regression by Graphpad Prism software.

[2] = biological target: B-Raf (V600E) (Homo sapiens (Human), UniProt P15056, V600E); assay: Raf IC50 assay, time-resolved fluorescence energy transfer (TR-FRET), B-Raf; type: biochemical
Sequence of B-Raf (V600E) (P15056 whole entry V600E): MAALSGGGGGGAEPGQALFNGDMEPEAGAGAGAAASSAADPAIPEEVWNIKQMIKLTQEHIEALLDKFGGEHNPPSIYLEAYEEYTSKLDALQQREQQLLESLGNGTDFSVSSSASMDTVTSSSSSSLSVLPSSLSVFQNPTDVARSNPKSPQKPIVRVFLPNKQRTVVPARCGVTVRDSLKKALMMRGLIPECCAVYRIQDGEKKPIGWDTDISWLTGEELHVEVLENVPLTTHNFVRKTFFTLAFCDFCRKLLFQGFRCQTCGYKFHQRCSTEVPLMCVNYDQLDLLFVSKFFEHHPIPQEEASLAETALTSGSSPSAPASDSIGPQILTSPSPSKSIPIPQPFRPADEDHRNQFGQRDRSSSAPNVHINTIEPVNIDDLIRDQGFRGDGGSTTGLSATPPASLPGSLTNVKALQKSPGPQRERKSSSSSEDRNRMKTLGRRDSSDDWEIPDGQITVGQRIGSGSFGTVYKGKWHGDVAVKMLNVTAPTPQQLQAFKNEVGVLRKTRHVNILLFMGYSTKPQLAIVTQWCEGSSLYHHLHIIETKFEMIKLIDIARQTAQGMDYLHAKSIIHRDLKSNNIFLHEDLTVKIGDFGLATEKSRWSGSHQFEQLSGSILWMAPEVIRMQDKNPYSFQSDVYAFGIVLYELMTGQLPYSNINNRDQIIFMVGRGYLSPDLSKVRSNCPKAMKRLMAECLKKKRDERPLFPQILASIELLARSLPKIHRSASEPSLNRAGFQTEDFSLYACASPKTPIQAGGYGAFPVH
Procedure: The enzyme was incubated with the compounds at room temperature for 60 minutes and the reactions were initiated by the addition of ATP and GST-MEK1. […] Plates were sealed and incubated at room temperature for 2 hours, and then the TR-FRET signals were read on BMG PHERAstar FS instrument. The IC50 for each compound was calculated by non linear regression by Graphpad Prism software.

[3] = 0.0625 nM B-Raf, 0.1 mM ATP, GST-tagged MEK1 substrate, 60 min preincubation, read-out: B-Raf (V600E) IC50

Sequence of C-Raf (Y340D/Y341D) (P04049 whole entry Y340D/Y341D): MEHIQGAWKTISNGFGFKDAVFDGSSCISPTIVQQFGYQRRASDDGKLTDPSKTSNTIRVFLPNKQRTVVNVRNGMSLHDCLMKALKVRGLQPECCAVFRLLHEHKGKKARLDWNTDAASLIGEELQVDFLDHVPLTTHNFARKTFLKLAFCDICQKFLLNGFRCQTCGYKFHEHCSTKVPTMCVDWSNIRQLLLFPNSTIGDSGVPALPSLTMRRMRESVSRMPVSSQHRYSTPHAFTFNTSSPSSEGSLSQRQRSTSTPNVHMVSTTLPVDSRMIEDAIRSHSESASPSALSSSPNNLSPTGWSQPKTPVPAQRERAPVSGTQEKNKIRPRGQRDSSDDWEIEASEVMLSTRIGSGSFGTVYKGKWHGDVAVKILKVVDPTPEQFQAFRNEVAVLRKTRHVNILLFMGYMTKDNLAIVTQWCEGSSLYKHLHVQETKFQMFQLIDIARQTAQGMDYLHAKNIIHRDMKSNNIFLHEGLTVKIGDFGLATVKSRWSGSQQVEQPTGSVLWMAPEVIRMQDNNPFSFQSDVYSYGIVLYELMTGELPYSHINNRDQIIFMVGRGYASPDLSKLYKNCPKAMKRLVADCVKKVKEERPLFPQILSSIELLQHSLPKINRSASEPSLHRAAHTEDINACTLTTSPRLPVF

SMILES | IC50 [1] [nM] | IC50 [2, 3] [nM] | IC50 [2] [nM]
Cn1c(C2C3Oc4ccc(Oc5ccnc6c5CCC(=O)N6)cc4C32)nc2cc(C(F)(F)F)ccc21 (centres unmarked) [Compound 2.24] | 4.3 | 47 | –
O=C1CCc2c(Oc3ccc4c(c3)C3C(O4)C3c3nc4cc(F)c(F)cc4[nH]3)ccnc2N1 (centres unmarked) [Compound 2.11] | 3.3 | 5.9 | –
O=C1CCc2c(Oc3ccc4c(c3)C3C(O4)C3C(=O)O)ccnc2N1 (racemic) [Intermediate II, (±)-exo-5-((7-Oxo-5,6,7,8-tetrahydro-1,8-naphthyridin-4-yl)oxy)-1a,6b-dihydro-1H-cyclopropa[b]benzofuran-1-carboxylic acid] | 2910 | – | > 5000
CC(C)(C)c1ccc2nc(C3C4Oc5ccc(Oc6ccnc7c6CCC(=O)N7)cc5C43)[nH]c2c1 (centres unmarked) [Compound 2.20] | 4.4 | 33 | –
Cn1c(C2C3Oc4ccc(Oc5ccnc6c5CCC(=O)N6)cc4C32)nc2ccc(C(F)(F)F)cc21 (centres unmarked) [Compound 2.23] | 35 | 204 | –
O=C1CCc2c(Oc3ccc4c(c3)C3C(O4)C3c3nc4ccccc4[nH]3)ccnc2N1 (racemic) [Compound 2.1, (±)-exo-5-((1-(1H-benzo[d]imidazol-2-yl)-1a,6b-dihydro-1H-cyclopropa[b]benzofuran-5-yl)oxy)-3,4-dihydro-1,8-naphthyridin-2(1H)-one] | 0.3 | 3.1 | –
O=C1CCc2c(Oc3ccc4c(c3)[C@H]3[C@@H](O4)[C@@H]3c3nc4cc(Cl)c(C(F)(F)F)cc4[nH]3)ccnc2N1 [Compound 2.5b] | 2.5 | – | –
FC(F)(F)c1ccc2nc(C3C4Oc5ccc(Oc6ccnc7[nH]ccc67)cc5C43)[nH]c2c1 (racemic) [Compound 3.3, (±)-exo-2-(5-((1H-pyrrolo[2,3-b]pyridin-4-yl)oxy)-1a,6b-dihydro-1H-cyclopropa[b]benzofuran-1-yl)-6-(trifluoromethyl)-1H-benzo[d]imidazole] | 104 | 522 | –
O=C1CCc2c(Oc3ccc4c(c3)C3C(O4)C3c3nc4ccc(Cl)cc4[nH]3)ccnc2N1 (centres unmarked) [Compound 2.12] | 4.1 | 12 | –
O=C1CCc2c(Oc3cccc4c3OC3C(c5nc6ccc(C(F)(F)F)cc6[nH]5)C43)ccnc2N1 (centres unmarked) [Compound 2.25] | 36 | 849 | –
O=C1CCc2c(Oc3ccc4c(c3)[C@@H]3[C@H](O4)[C@H]3c3nc4ccc(C(F)(F)F)cc4[nH]3)ccnc2N1 [Compound 2.2b, 5-(((1R,1aS,6bR)-1-(6-(trifluoromethyl)-1H-benzo[d]imidazol-2-yl)-1a,6b-dihydro-1H-cyclopropa[b]benzofuran-5-yl)oxy)-3,4-dihydro-1,8-naphthyridin-2(1H)-one] | 8.8 | 53 | –
O=C1CCc2c(Oc3ccc4c(c3)C3C(O4)C3c3nc4ccc(O)cc4[nH]3)ccnc2N1 (racemic) [Compound 2.27, (±)-exo-5-((1-(6-hydroxy-1H-benzo[d]imidazol-2-yl)-1a,6b-dihydro-1H-cyclopropa[b]benzofuran-5-yl)oxy)-3,4-dihydro-1,8-naphthyridin-2(1H)-one] | < 0.25 | 2.5 | –
O=C1CCc2c(Oc3ccc4c(c3)C3C(O4)C3c3nc4ccc(F)cc4[nH]3)ccnc2N1 (centres unmarked) [Compound 2.7] | 2.1 | 10 | –
O=C1CCc2c(Oc3ccc4c(c3)C3C(C4)C3c3nc4ccccc4s3)ccnc2N1 (racemic) [Compound 1.3, (±)-exo-5-((1-(benzo[d]thiazol-2-yl)-1,1a,6,6a-tetrahydrocyclopropa[a]inden-3-yl)oxy)-3,4-dihydro-1,8-naphthyridin-2(1H)-one] | 5.5 | 88 | –
O=C1CCc2c(Oc3ccc4c(c3)C3C(O4)C3c3nc(-c4ccncc4)c[nH]3)ccnc2N1 (centres unmarked) [Compound 2.31] | 0.35 | 3.7 | –
Cc1cc2[nH]c([C@@H]3[C@H]4Oc5ccc(Oc6ccnc7c6CCC(=O)N7)cc5[C@H]43)nc2cc1F [Compound 2.4a] | 0.54 | – | –
COc1ccc2nc(C3C4Oc5ccc(Oc6ccnc7c6CCC(=O)N7)cc5C43)[nH]c2c1 (centres unmarked) [Compound 2.16] | 3.8 | 15 | –
O=C1CCc2c(Oc3ccc4c(c3)C3C(O4)C3c3nc(-c4ccccc4)no3)ccnc2N1 (racemic) [Compound 2.29, (±)-exo-5-((1-(3-phenyl-1,2,4-oxadiazol-5-yl)-1a,6b-dihydro-1H-cyclopropa[b]benzofuran-5-yl)oxy)-3,4-dihydro-1,8-naphthyridin-2(1H)-one] | < 0.25 | 3.2 | –

SMILES | IC50 [1] [nM] | IC50 [2, 3] [nM] | IC50 [2] [nM]
Cn1c(C2C3Oc4ccc(Oc5ccnc6c5CCC(=O)N6)cc4C32)nc2ccccc21 (centres unmarked) [Compound 2.15] | 3.6 | 12 | –
O=C1CCc2c(Oc3ccc4c(c3)C3C(O4)C3c3nc4cccc(F)c4[nH]3)ccnc2N1 (centres unmarked) [Compound 2.19] | 1.6 | 11 | –
O=C1CCc2c(Oc3ccc4c(c3)C3C(O4)C3c3nc4cc(Cl)c(F)cc4[nH]3)ccnc2N1 (centres unmarked) [Compound 2.17] | 5.9 | 5.4 | –
O=C1CCc2c(Oc3ccc4c(c3)C3C(O4)C3c3nc(-c4ccccc4Cl)c[nH]3)ccnc2N1 (centres unmarked) [Compound 2.32] | 0.9 | 3.3 | –
NC(=O)c1ccc2nc(C3C4Oc5ccc(Oc6ccnc7c6CCC(=O)N7)cc5C43)[nH]c2c1 (centres unmarked) [Compound 2.22] | 1 | 4 | –
CNC(=O)c1cc(Oc2ccc3c(c2)C2C(O3)C2c2nc3ccc(C(F)(F)F)cc3[nH]2)ccn1 (racemic) [Compound 3.1, (±)-exo-N-methyl-4-((1-(6-(trifluoromethyl)-1H-benzo[d]imidazol-2-yl)-1a,6b-dihydro-1H-cyclopropa[b]benzofuran-5-yl)oxy)picolinamide] | 6.5 | – | –
O=C1CCc2c(Oc3ccc4c(c3)C3C(O4)C3c3nc4ccc(Br)cc4[nH]3)ccnc2N1 (centres unmarked) [Compound 2.13] | 1.7 | 7.2 | –
O=C1CCc2c(Oc3ccc4c(c3)C3C(O4)C3c3nc4c(Cl)cc(C(F)(F)F)cc4[nH]3)ccnc2N1 (centres unmarked) [Compound 2.10] | 25 | 80 | –
O=C1CCc2c(Oc3ccc4c(c3)[C@@H]3[C@H](O4)[C@H]3c3nc4cc(Cl)c(C(F)(F)F)cc4[nH]3)ccnc2N1 [Compound 2.5a] | 21 | – | –
O=C1CCc2c(Oc3cc4c(cc3Cl)OC3C(c5nc6ccc(C(F)(F)F)cc6[nH]5)C43)ccnc2N1 (racemic) [Compound 2.36, (±)-exo-5-((4-chloro-1-(6-(trifluoromethyl)-1H-benzo[d]imidazol-2-yl)-1a,6b-dihydro-1H-cyclopropa[b]benzofuran-5-yl)oxy)-3,4-dihydro-1,8-naphthyridin-2(1H)-one] | 32 | 117 | –
FC(F)(F)c1ccc2nc(C3C4Oc5ccc(Oc6ccnc(-c7nc(C(F)(F)F)c[nH]7)c6)cc5C43)[nH]c2c1 (racemic) [Compound 3.4, (±)-exo-6-(trifluoromethyl)-2-(5-((2-(4-(trifluoromethyl)-1H-imidazol-2-yl)pyridin-4-yl)oxy)-1a,6b-dihydro-1H-cyclopropa[b]benzofuran-1-yl)-1H-benzo[d]imidazole] | 56 | 291 | –
O=C1CCc2c(Oc3ccc4c(c3)C3C(O4)C3c3nc4ccncc4[nH]3)ccnc2N1 (centres unmarked) [Compound 2.9] | 4.5 | 42 | –
O=C1CCc2c(Oc3ccc4c(c3)C3C(O4)C3c3nc4cc(C(F)(F)F)ccc4n3CCO)ccnc2N1 (racemic) [Compound 2.34, (±)-exo-5-((1-(1-(2-hydroxyethyl)-5-(trifluoromethyl)-1H-benzo[d]imidazol-2-yl)-1a,6b-dihydro-1H-cyclopropa[b]benzofuran-5-yl)oxy)-3,4-dihydro-1,8-naphthyridin-2(1H)-one] | – | 30 | –
O=C1CCc2c(Oc3ccc4c(c3)C3C(O4)C3c3nc(-c4ccccc4)c[nH]3)ccnc2N1 (racemic) [Compound 2.30, (±)-exo-5-((1-(4-phenyl-1H-imidazol-2-yl)-1a,6b-dihydro-1H-cyclopropa[b]benzofuran-5-yl)oxy)-3,4-dihydro-1,8-naphthyridin-2(1H)-one] | < 0.25 | 0.72 | –
FC(F)(F)c1ccc2nc(C3C4Oc5ccc(Oc6ccncn6)cc5C43)[nH]c2c1 (racemic) [Compound 3.2, (±)-exo-2-(5-(pyrimidin-4-yloxy)-1a,6b-dihydro-1H-cyclopropa[b]benzofuran-1-yl)-6-(trifluoromethyl)-1H-benzo[d]imidazole] | 223 | – | –
O=C1CCc2c(Oc3ccc4c(c3)C3C(O4)C3c3nc4cc5c(cc4[nH]3)CCC5)ccnc2N1 (centres unmarked) [Compound 2.21] | – | 1.2 | –
O=C1CCc2c(Oc3ccc4c(c3)C3C(C4)C3c3nc4ccccc4[nH]3)ccnc2N1 (racemic) [Compound 1.1, (±)-exo-5-((1-(1H-benzo[d]imidazol-2-yl)-1,1a,6,6a-tetrahydrocyclopropa[a]inden-3-yl)oxy)-3,4-dihydro-1,8-naphthyridin-2(1H)-one] | – | 11 | –
